Test results as given in patent US12606568B2, “SMARCA degraders and uses thereof” (Kymera Therapeutics, Inc., priority 2020, dated 2026).

Assays:
Format in all cases: cell-based
SMARCA4 = molecular target: T1, SMARCA4 (Homo sapiens, UniProt P51532); assay: SMARCA4 Western blot MV4-11 degradation; settings: for Dmax: MV4-11, MV4-11 cells, read-out: SMARCA4 MSD MV411 degradation 24 h: average Dmax %; for Dmax / DC50: 24 h; for DC50: read-out: SMARCA4 MSD MV411 degradation 24 h: Mean external-Abs DC50
T1 construct: SMARCA2 and SMARCA4 protein degradation in MV4-11 cells; endogenous in cells; host or cells: MV4-11
T1 sequence (P51532 whole entry): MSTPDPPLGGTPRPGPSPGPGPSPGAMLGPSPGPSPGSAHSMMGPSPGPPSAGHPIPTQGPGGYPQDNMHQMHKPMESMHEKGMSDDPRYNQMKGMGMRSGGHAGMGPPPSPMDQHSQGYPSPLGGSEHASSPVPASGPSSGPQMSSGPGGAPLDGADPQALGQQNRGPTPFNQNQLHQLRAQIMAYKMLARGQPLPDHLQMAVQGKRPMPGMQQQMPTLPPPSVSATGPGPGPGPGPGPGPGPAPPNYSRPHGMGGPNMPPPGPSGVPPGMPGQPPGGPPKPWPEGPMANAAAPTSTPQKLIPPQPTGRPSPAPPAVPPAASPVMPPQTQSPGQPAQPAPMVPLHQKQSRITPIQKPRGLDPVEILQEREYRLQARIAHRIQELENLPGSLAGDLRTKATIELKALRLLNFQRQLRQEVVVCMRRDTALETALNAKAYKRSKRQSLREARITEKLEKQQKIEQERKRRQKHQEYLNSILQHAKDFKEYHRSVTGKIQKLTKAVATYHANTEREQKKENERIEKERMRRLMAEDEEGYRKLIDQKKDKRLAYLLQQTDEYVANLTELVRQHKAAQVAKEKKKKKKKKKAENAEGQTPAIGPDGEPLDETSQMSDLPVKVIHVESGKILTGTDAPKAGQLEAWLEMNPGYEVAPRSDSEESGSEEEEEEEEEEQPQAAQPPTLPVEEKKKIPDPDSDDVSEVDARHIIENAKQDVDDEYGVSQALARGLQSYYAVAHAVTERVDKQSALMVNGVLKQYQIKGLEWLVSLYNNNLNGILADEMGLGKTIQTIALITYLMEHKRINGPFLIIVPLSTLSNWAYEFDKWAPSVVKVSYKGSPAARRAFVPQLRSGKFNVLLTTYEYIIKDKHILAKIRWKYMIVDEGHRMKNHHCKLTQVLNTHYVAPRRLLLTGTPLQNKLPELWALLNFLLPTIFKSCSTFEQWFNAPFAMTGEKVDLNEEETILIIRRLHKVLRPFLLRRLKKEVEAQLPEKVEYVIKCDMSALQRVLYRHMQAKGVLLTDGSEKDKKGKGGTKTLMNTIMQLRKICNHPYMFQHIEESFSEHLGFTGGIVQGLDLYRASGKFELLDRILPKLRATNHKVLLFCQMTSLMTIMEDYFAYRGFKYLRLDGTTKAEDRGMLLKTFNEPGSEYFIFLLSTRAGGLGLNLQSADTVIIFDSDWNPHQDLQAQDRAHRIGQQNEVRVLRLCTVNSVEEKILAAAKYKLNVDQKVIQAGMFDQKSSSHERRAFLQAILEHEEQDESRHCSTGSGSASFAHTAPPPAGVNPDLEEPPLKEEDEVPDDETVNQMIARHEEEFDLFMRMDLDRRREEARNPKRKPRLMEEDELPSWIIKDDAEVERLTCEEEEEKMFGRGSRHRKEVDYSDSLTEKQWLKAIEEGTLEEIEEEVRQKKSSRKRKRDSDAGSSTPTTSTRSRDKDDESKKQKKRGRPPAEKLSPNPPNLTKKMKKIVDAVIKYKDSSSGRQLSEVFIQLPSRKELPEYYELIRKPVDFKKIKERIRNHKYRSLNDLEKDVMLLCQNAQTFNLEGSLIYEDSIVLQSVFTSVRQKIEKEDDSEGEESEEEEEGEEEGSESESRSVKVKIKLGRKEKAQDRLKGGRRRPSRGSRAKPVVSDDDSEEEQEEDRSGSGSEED
Experimental: (§1) Example 54. SMARCA2 and SMARCA 4 Western Blot MV4-11 Degradation
(§2) Cells were seeded into 6-well plates (MV4-11: 4×10^6 cells/well/1 ml) and 1 ml of 2× compound solution was added into the well to make the final concentration and the plates were mixed well and incubated for 24 hours (No cytotoxicity was observed). The cell were collected with media and spun at 3000 rpm for 5 minutes. The supernatant was aspirated and the well and the cells were washed with cold PBS once and combined for centrifugation again; the supernatant aspirated again. 200 ul pre-chilled RIPA lysis buffer (Boston BioProducts BP-115D) with protease/phosphatase inhibitor (Roche 05892791001/Roche 04906837001) was directly added into the tube to lyze the cells for 20 minutes on ice. The cell lysate were collected into EP tubes and spun at 13000 rpm for 20 minutes and 72 ul supernatant was transferred to a fresh EP tube containing 18 ul of 5× loading buffer (Beyotime Bio P0015) to make the loading samples. The samples were heated to 100° C. for 10 minutes and cooled to RT and microcentrifuged. 20 ul of samples were loaded onto SDS-PAGE gel (Novex, WG1402BOX) and the gel was run at 80 V for 20 minutes and 120 V for 1.5 hours. The samples were electrotransfer to a NC membrane using wet-transfer method with 250 mA for 2.5 hours. The membrane was blocked with LICOR blocking buffer (LI-COR, 927-50000) for 1 hour. The membrane was washed three times with TBST (CST #9997S), 5 minutes each. Incubation was performed with primary antibody prepared in blocking buffer with 0.1% Tween-20 (Solarbio, P8220) at 4° C. overnight (Anti-SMARCA2/BRM antibody (ab15597) 1:500; Anti-BRG1 antibody [EPR3912] (ab108318) 1:1000; Rabbit anti-Baf180 antibody [EPR15860] (Abcam, ab196022) 1:1000; mouse anti-beta-Actin (8H10D10) (CST #3700) 1:10000). The membrane was washed three times with TBST, 5 minutes each. Incubation with secondary antibody was performed for 1 hour at RT (anti-rabbit IgG (Licor, 926-32211) 1:5000; anti-mouse IgG (LI-COR, 926-68070) 1:5000). The membrane was washed three times with TBST, 5 minutes each and lastly the LiCOR was read.
(§3) The letter codes for SMARCA degradation potency (DC50) include: A (<100 nM), B (100-500 nM), C (501-1000 nM), and D (>1000 nM). The letter codes for the percentage of SMARCA degradation after 24 hours (Dmax %) include: A (>90% degradation), B (>70-90% degradation), C (50-70% degradation), and D (<50% degradation).

SMARCA2 [1] = molecular target: T2, SMARCA2 (Homo sapiens, UniProt P51531); assay: MSD SMARCA2 degradation in A549 cell line; design: endogenous in cells; settings: for Dmax: A549, A549 cells; for Dmax / DC50: 24 h; for DC50: read-out: SMARCA2 MSD A549 degradation 24 h: Average external-Abs DC50
T2 sequence (P51531 whole entry): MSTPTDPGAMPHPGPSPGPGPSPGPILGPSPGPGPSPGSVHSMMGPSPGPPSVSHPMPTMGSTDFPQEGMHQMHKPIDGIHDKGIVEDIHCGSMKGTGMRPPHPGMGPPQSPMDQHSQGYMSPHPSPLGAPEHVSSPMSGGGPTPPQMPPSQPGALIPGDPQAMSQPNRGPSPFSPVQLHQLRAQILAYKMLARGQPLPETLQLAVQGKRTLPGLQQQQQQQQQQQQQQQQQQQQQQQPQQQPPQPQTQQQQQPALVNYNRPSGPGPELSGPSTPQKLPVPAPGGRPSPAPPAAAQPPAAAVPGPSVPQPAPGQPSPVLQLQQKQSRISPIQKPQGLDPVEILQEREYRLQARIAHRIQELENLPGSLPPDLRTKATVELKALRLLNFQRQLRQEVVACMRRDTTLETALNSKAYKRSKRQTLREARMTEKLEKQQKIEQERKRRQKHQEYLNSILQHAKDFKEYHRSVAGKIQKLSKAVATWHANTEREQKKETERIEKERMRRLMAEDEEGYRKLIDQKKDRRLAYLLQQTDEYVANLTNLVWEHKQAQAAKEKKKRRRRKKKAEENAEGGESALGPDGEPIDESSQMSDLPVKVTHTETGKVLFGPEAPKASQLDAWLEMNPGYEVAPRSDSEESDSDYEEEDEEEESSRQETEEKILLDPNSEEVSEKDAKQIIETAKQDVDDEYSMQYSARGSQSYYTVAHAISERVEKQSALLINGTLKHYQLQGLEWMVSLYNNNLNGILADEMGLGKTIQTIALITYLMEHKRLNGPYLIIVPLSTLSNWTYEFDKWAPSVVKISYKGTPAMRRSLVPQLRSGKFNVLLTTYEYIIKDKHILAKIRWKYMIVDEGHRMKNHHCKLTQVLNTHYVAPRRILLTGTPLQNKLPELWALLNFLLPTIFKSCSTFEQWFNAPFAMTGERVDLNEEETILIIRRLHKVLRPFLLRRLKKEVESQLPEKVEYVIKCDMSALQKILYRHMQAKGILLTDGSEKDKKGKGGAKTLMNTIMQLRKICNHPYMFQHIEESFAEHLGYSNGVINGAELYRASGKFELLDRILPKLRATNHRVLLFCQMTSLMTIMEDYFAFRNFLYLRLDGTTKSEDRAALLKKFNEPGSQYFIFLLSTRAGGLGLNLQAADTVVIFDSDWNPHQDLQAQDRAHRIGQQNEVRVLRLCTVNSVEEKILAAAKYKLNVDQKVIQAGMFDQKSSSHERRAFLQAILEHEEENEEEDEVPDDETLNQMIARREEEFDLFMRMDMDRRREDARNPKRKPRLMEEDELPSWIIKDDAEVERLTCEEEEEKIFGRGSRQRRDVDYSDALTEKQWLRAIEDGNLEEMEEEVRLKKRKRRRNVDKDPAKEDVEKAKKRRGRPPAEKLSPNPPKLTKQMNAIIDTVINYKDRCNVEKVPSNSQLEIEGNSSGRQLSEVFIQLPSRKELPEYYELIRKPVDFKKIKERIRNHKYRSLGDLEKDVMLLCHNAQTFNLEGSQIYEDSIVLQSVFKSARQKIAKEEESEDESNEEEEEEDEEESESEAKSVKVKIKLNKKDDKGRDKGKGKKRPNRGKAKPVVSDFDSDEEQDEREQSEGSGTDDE
Experimental: Example 53. MSD SMARCA2 Degradation in A549 Cell Line
Cells were seeded into 96-well plates (A549 cells: 2×10^4 cells/well/100 ul media) abd incubated overnight. The next day, 200 nl compound were added into the intermediate plate with Echo (Labcyte 550) from source plate containing a 3-fold serial dilution from top concentration of 1 mM. The culture medium was changed with 80 ul of fresh medium and 80 ul of 2× compound solution was added into the well to make a final concentration of 1000 nM, 333.3 nM, 111.1 nM, 37.04 nM, 12.35 nM, 4.115 nM, 1.372 nM, 0.457 nM, 0.152 nM and 0 nM (DMSO). The wells were mixed and then incubated for 24 hours. The media was aspirated from the cultures and 60 ul pre-chilled PIPA lysis buffer (Boston BioProducts BP-115D) with protease/phosphatase inhibitor (Roche 05892791001/Roche 04906837001) was added into the well to lyze the cells for 20 minutes at 4° C. The MSD plate (L15XA) was coated with 40 ul cell lysate and incubated at 4° C. overnight. The next day, the plate was washed three times with TBST (CST #9997S), 150 ul/well. The MSD plates was blocked with 150 ul blocking buffer per well and shaked for 1 hr at R^†, 600 rpm. The blocking buffer was 3% Blocker A (MSD, R93BA-4) in TBST. The MSD plate was washed three times with 150 ul/well of TBST and 25 ul/well of detection antibody (Rabbit anti-SMARCA2/BRM antibody, 100 μg/ml, ab223735) was added at final concentration of 1 ug/mi diluted in 1% o Blocking buffer and shaken for 1 hour at R^†, 600 rpm. The MSD plate was washed three times with 150 ul/well of TBST and 25 ul/well of SULFO-TAG anti-rabbit antibody (MSD, R32AB-1) was added at final concentration of 1 μg/ml diluted in […] Blocking buffer and shaken for 1 hour at R^†, 600 rpm. The MSD plate was washed three times with 150 ul/well of TBST and 150 ul/well of 2×MSD reading buffer diluted from 4× (MSD, R92TC-2) with water was added. Lastly, the MSD instrument was read.
as §3, with “SMARCA2” for “SMARCA”, “% o)” for “%)”, “(>90% o” for “(>90%”, “(>70-90% o” for “(>70-90%”, “(50-70% o” for “(50-70%”

SMARCA2 [2] = molecular target: T2, SMARCA2; assay: SMARCA2 Western blot MV4-11 degradation; design: SMARCA2 and SMARCA4 protein degradation in MV4-11 cells; endogenous in cells; host or cells: MV4-11; settings: for Dmax: MV4-11, MV4-11 cells, read-out: SMARCA2 MSD MV411 degradation 24 h: average Dmax %; for Dmax / DC50: 24 h; for DC50: read-out: SMARCA2 MSD MV411 degradation 24 h: Mean external-Abs DC50
Experimental: as §1, §2, §3

Cc1ncsc1-c1ccc(CNC(=O)[C@@H]2C[C@@H](O)CN2C(=O)[C@@H](NC(=O)[C@H]2CC3(C2)C[C@H](N2CCC(c4ccc(N5C6CCC5CN(c5cc(-c7ccccc7O)nnc5N)C6)cc4)CC2)C3)C(C)(C)C)nc1 (stereo partly drawn) [I-23, (2S,4R)-1-((2S)-2-(6-(4-(4-(3-(3-amino-6-(2-hydroxyphenyl)pyridazin-4-yl)-3,8-diazabicyclo[3.2.1]octan-8-yl)phenyl)piperidin-1-yl)spiro[3.3]heptane-2-carboxamido)-3,3-dimethylbutanoyl)-4-hydroxy-N-((5-(4-methylthiazol-5-yl)pyridin-2-yl)methyl)pyrrolidine-2-carboxamide]
Dmax (SMARCA4): < 50%
DC50 (SMARCA4; MV4-11 cells): > 1000 nM
Dmax (SMARCA2 [1]): < 50%
DC50 (SMARCA2 [1]; A549 cells): > 1000 nM
Dmax (SMARCA2 [2]): < 50%
DC50 (SMARCA2 [2]; MV4-11 cells): 100 to 500 nM

Cc1ncsc1-c1ccc(CNC(=O)[C@@H]2C[C@@H](O)CN2C(=O)[C@@H](NC(=O)[C@H]2CC3(CC[C@H](N4CCC(c5cnc(N6C7CCC6CN(c6cc(-c8ccccc8O)nnc6N)C7)nc5)CC4)CC3)C2)C(C)(C)C)cc1 (stereo partly drawn) [I-14, (2S,4R)-1-((2S)-2-(7-(4-(2-(3-(3-amino-6-(2-hydroxyphenyl)pyridazin-4-yl)-3,8-diazabicyclo[3.2.1]octan-8-yl)pyrimidin-5-yl)piperidin-1-yl)spiro[3.5]nonane-2-carboxamido)-3,3-dimethylbutanoyl)-4-hydroxy-N-(4-(4-methylthiazol-5-yl)benzyl)pyrrolidine-2-carboxamide]
SMARCA4 MSD MV411 degradation 24 h: average Dmax % (SMARCA4; MV4-11 cells): B (B (>70-90% degradation))
DC50 (SMARCA4; MV4-11 cells): > 1000 nM
SMARCA2 MSD A549 degradation 24 h: Average Dmax % (SMARCA2 [1]; A549 cells): B (B (>70-90% o degradation))
DC50 (SMARCA2 [1]; A549 cells): < 100 nM
SMARCA2 MSD MV411 degradation 24 h: average Dmax % (SMARCA2 [2]; MV4-11 cells): B (B (>70-90% degradation))
DC50 (SMARCA2 [2]; MV4-11 cells): < 100 nM

Cc1ncsc1-c1ccc(CNC(=O)[C@@H]2C[C@@H](O)CN2C(=O)[C@@H](NC(=O)[C@H]2CC3(CC[C@H](N4CCC(c5cnc(N6C7CCC6CN(c6cc(-c8ccccc8O)nnc6N)C7)nc5)CC4)CC3)C2)C(C)(C)C)cc1 (some centres unmarked) [I-13]
Dmax (SMARCA4): 70 to 90%
DC50 (SMARCA4; MV4-11 cells): > 1000 nM
Dmax (SMARCA2 [1]): > 90%
DC50 (SMARCA2 [1]; A549 cells): < 100 nM
Dmax (SMARCA2 [2]): 70 to 90%
DC50 (SMARCA2 [2]; MV4-11 cells): < 100 nM

Cc1ncsc1-c1ccc(CNC(=O)[C@@H]2C[C@@H](O)CN2C(=O)[C@@H](NC(=O)[C@H]2CC3(C2)C[C@H](N2CCC(c4ccc(N5C6CCC5CN(c5cc(-c7ccccc7O)nnc5N)C6)cc4)CC2)C3)C(C)(C)C)nc1 (stereo partly drawn) [I-24, (2S,4R)-1-((2S)-2-(6-(4-(4-(3-(3-amino-6-(2-hydroxyphenyl)pyridazin-4-yl)-3,8-diazabicyclo[3.2.1]octan-8-yl)phenyl)piperidin-1-yl)spiro[3.3]heptane-2-carboxamido)-3,3-dimethylbutanoyl)-4-hydroxy-N-((5-(4-methylthiazol-5-yl)pyridin-2-yl)methyl)pyrrolidine-2-carboxamide]
DC50 (SMARCA4; MV4-11 cells): > 1000 nM
DC50 (SMARCA2 [1]; A549 cells): > 1000 nM
DC50 (SMARCA2 [2]; MV4-11 cells): 100 to 500 nM

Cc1ncsc1-c1cnc(CNC(=O)[C@@H]2C[C@@H](O)CN2C(=O)[C@@H](NC(=O)[C@H]2CC3(C2)C[C@H](N2CCC(c4ccc(N5C6CCC5CN(c5cc(-c7ccccc7O)nnc5N)C6)cc4)CC2)C3)C(C)(C)C)cn1 (stereo partly drawn) [I-29, (2S,4R)-1-((2S)-2-(6-(4-(4-(3-(3-amino-6-(2-hydroxyphenyl)pyridazin-4-yl)-3,8-diazabicyclo[3.2.1]octan-8-yl)phenyl)piperidin-1-yl)spiro[3.3]heptane-2-carboxamido)-3,3-dimethylbutanoyl)-4-hydroxy-N-((5-(4-methylthiazol-5-yl)pyrazin-2-yl)methyl)pyrrolidine-2-carboxamide]
Dmax (SMARCA4): 50 to 70%
DC50 (SMARCA4; MV4-11 cells): > 1000 nM
Dmax (SMARCA2 [1]): < 50%
DC50 (SMARCA2 [1]; A549 cells): > 1000 nM
Dmax (SMARCA2 [2]): < 50%
DC50 (SMARCA2 [2]; MV4-11 cells): > 1000 nM

Cc1ncsc1-c1ccc(CNC(=O)[C@@H]2C[C@@H](O)CN2C(=O)[C@@H](NC(=O)[C@H]2CC3(C2)C[C@H](N2CCC(c4ccc(N5C6CCC5CN(c5cc(-c7ccccc7O)nnc5N)C6)cc4)CC2)C3)C(C)(C)C)cn1 (stereo partly drawn) [I-28, (2S,4R)-1-((2S)-2-(6-(4-(4-(3-(3-amino-6-(2-hydroxyphenyl)pyridazin-4-yl)-3,8-diazabicyclo[3.2.1]octan-8-yl)phenyl)piperidin-1-yl)spiro[3.3]heptane-2-carboxamido)-3,3-dimethylbutanoyl)-4-hydroxy-N-((6-(4-methylthiazol-5-yl)pyridin-3-yl)methyl)pyrrolidine-2-carboxamide]
DC50 (SMARCA4; MV4-11 cells): > 1000 nM
DC50 (SMARCA2 [1]; A549 cells): > 1000 nM
DC50 (SMARCA2 [2]; MV4-11 cells): 100 to 500 nM

Cc1ncsc1-c1ccc(CNC(=O)[C@@H]2C[C@@H](O)CN2C(=O)[C@@H](NC(=O)[C@H]2CC3(C2)C[C@H](N2CCN(c4cnc(N5C6CCC5CN(c5cc(-c7ccccc7O)nnc5N)C6)nc4)CC2)C3)C(C)(C)C)cc1 (single isomer, unassigned) [I-8]
Dmax (SMARCA4): < 50%
DC50 (SMARCA4; MV4-11 cells): > 1000 nM
Dmax (SMARCA2 [1]): 70 to 90%
DC50 (SMARCA2 [1]; A549 cells): < 100 nM
Dmax (SMARCA2 [2]): 70 to 90%
DC50 (SMARCA2 [2]; MV4-11 cells): < 100 nM

Cc1ncsc1-c1ccc(CNC(=O)[C@@H]2C[C@H](O)CN2C(=O)[C@@H](NC(=O)[C@H]2CC3(C2)C[C@H](N2CCC(c4cnc(N5C6CCC5CN(c5cc(-c7ccccc7O)nnc5N)C6)nc4)CC2)C3)C(C)(C)C)cc1 (stereo partly drawn) [I-80, (2S,4S)-1-((2S)-2-(6-(4-(2-(3-(3-amino-6-(2-hydroxyphenyl)pyridazin-4-yl)-3,8-diazabicyc-lo[3.2.1]octan-8-yl)pyrimidin-5-yl)piperidin-1-yl)spiro[3.3]heptane-2-carboxamido)-3,3-dimethylbutanoyl)-4-hydroxy-N-(4-(4-methylthiazol-5-yl)benzyl)pyrrolidine-2-carbox-amide]
DC50 (SMARCA4; MV4-11 cells): > 1000 nM
DC50 (SMARCA2 [1]; A549 cells): > 1000 nM
